Counter-ions that a name gives are not always drawn. ± gives the standard error.
How the values were obtained:
621-102 (TSC2-deficient) = assay: relative viability vs DMSO; higher = less cytotoxic; settings: serum: 10% FBS, 72 h
621-103 (TSC2-rescued) = assay: as above; settings: serum: 10% FBS, 72 h
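Further: immortalized renal angiomyolipoma cells stably carrying empty vector or TSC2, dosed in 384-well plates in DMEM, viability normalized to vehicle-treated wells within each plate.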

SMILES	relative viability (621-102 (TSC2-deficient); 0.0001 µM) [%]	relative viability (621-102 (TSC2-deficient); 0.001 µM) [%]	relative viability (621-102 (TSC2-deficient); 0.01 µM) [%]	relative viability (621-102 (TSC2-deficient); 0.1 µM) [%]	relative viability (621-102 (TSC2-deficient); 1 µM) [%]	relative viability (621-102 (TSC2-deficient); 10 µM) [%]	relative viability (621-103 (TSC2-rescued); 0.0001 µM) [%]	relative viability (621-103 (TSC2-rescued); 0.001 µM) [%]	relative viability (621-103 (TSC2-rescued); 0.01 µM) [%]	relative viability (621-103 (TSC2-rescued); 0.1 µM) [%]	relative viability (621-103 (TSC2-rescued); 1 µM) [%]	relative viability (621-103 (TSC2-rescued); 10 µM) [%]
C[N+]1(C)[C@@H]2C[C@@H](OC(=O)C(O)(c3cccs3)c3cccs3)C[C@H]1[C@@H]1O[C@@H]12 [Tiotropium]	119 ± 3.2	114 ± 4.8	115 ± 4.8	111 ± 2.6	117 ± 4.4	112.5 ± 1.1	82.2 ± 1.7	96 ± 3.8	103.3 ± 0.58	96.8 ± 4.6	102.87 ± 0.086	100.4 ± 0.9
Cc1ccc(Nc2nccc(N(C)c3ccc4c(C)n(C)nc4c3)n2)cc1S(N)(=O)=O [Pazopanib Hydrochloride]	78.9 ± 0.89	104 ± 5.5	110 ± 5.6	114.4 ± 0.52	104.7 ± 0.87	82.2 ± 1.6	92.7 ± 4.2	99.2 ± 3.9	102 ± 1.2	102.1 ± 1	100.8 ± 0.29	55.9 ± 1.2
C#CCN(C)[C@H](C)Cc1ccccc1 [Selegiline HCl]	81.4 ± 7.3	80.4 ± 9.2	91.8 ± 7.5	102 ± 1.1	95.7 ± 3	88.1 ± 1.8	95.9 ± 3.1	92.55 ± 0.61	100 ± 1.2	109 ± 2.5	102 ± 3.7	79.5 ± 0.86
CCCCC(=O)N(Cc1ccc(-c2ccccc2-c2nnn[nH]2)cc1)[C@H](C(=O)O)C(C)C [Valsartan]	85.7 ± 5	113 ± 4.4	117.3 ± 1	117 ± 5.9	107 ± 1.1	104 ± 1.3	101 ± 3.4	118.1 ± 0.48	115 ± 1.9	114 ± 6.2	110.2 ± 0.73	115 ± 2.4
N=C(N)NC(=N)NCCc1ccccc1 [Phenformin HCl]	114.3 ± 0.035	113.5 ± 0.44	113 ± 1.9	112 ± 1.7	110 ± 8	105.3 ± 0.58	101 ± 5.7	102 ± 2.7	99.8 ± 1.6	104 ± 3.9	101 ± 5.7	101.9 ± 0.52
O=c1c(O)c(-c2ccc(O)c(O)c2)oc2cc(O)cc(O)c12 [Quercetin (Sophoretin)]	64.8 ± 5.1	65.4 ± 7.3	68.4 ± 9.3	75 ± 10	78.2 ± 10	73.3 ± 5	87 ± 2	79.1 ± 1.4	88.6 ± 3.3	95.2 ± 6.2	89.4 ± 4.9	86.8 ± 1.1
NC(=O)c1ccc(N(C(N)=O)c2c(F)cccc2F)nc1-c1ccc(F)cc1F [VX-702]	107 ± 1.9	109 ± 1.9	96.7 ± 1.6	98.6 ± 1.4	111.1 ± 0.41	104 ± 4	101.5 ± 0.42	99.8 ± 1.8	99.92 ± 0.12	99.4 ± 1.5	96.56 ± 0.13	99.1 ± 1.8
CCN(CC)Cc1ccc2cc(COC(=O)Nc3ccc(C(=O)NO)cc3)ccc2c1 [ITF2357]	107 ± 6.2	101 ± 3.4	95.94 ± 0.22	76.42 ± 0.1	57.1 ± 3.5	25.4 ± 0.77	98.21 ± 0.79	95.5 ± 1.7	96 ± 2	67.63 ± 0.33	26.9 ± 0.91	3.1 ± 0.064
FC(F)(F)c1ccc(Nc2nc3ccc(Oc4ccnc(-c5ncc(C(F)(F)F)[nH]5)c4)cc3[nH]2)cc1 [Raf265 derivative]	113.2 ± 0.3	94.5 ± 1.8	106.8 ± 0.2	112 ± 4.1	102 ± 6.6	72.52 ± 0.56	110 ± 2.7	108 ± 6.7	94.7 ± 5	103 ± 5.7	101 ± 4.6	73.2 ± 7

Source: the supplement of paper PMC8960247
